Experimental data: ChEMBL document CHEMBL1138819, “Synthesis and biological evaluation of pteridine and pyrazolopyrimidine based adenosine kinase inhibitors” (Bioorg Med Chem Lett, 2004)

molecular target: Adenosine kinase (Homo sapiens, UniProt P55263); experiment: In vitro inhibitory concentration against Adenosine kinase in cycstolic assay
Sequence (P55263 whole entry): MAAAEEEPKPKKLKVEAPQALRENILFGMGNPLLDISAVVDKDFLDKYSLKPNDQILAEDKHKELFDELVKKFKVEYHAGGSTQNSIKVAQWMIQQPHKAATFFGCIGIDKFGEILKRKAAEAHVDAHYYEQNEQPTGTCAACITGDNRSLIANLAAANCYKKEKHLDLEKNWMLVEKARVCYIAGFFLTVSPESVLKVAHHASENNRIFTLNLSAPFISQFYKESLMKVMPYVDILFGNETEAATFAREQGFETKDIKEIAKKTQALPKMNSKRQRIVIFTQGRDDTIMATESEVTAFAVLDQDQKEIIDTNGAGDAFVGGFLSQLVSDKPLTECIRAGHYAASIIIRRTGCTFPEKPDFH

Structure (SMILES)	IC50
Nc1ncnc(C#Cc2ccc(N3CCOCC3)nc2)c1Cc1cccc(Br)c1	22 nM
CN(Cc1ccccc1)c1c(N)ncnc1C#Cc1ccc(N2CCOCC2)nc1	30 nM
Cn1nc(-c2cccc(Br)c2)c2c(C#Cc3ccc(N4CCOCC4)nc3)ncnc21	82 nM
Brc1cccc(-c2[nH]nc3ncnc(C#Cc4ccc(N5CCOCC5)nc4)c23)c1	22 nM
CN(C)c1ccc(C#Cc2[nH]cnc3nnc(-c4cccc(Br)c4)c2-3)cn1	75 nM
CN(C)c1ccc(C#Cc2ncnc3c2c(-c2cccc(Br)c2)nn3C)cn1	7.5 nM
CN(C)c1ccc(C#Cc2ncnc3n[nH]c(-c4ccccc4)c23)cn1	100 nM
Brc1cccc(-c2nn(Cc3ccccc3)c3ncnc(C#Cc4ccc(N5CCOCC5)nc4)c23)c1	> 1000 nM

Continued, values first:

IC50	Structure (SMILES)
82 nM	c1ccc(CCCCNc2ncnc3nc(-c4ccc(N5CCOCC5)nc4)cnc23)cc1
460 nM	Nc1ncnc2nc(-c3ccc(N4CCOCC4)nc3)cnc12
72 nM	c1ccc(CCCNc2ncnc3nc(-c4ccc(N5CCOCC5)nc4)cnc23)cc1
> 1000 nM	Nc1ncnc2cc(-c3ccc(N4CCOCC4)nc3)n(Cc3ccccc3)c12
120 nM	c1ccc(CCNc2ncnc3nc(-c4ccc(N5CCOCC5)nc4)cnc23)cc1
300 nM	c1ccc2c(CCNc3ncnc4nc(-c5ccc(N6CCOCC6)nc5)cnc34)c[nH]c2c1
